Laboratory results: PubChem BioAssay (NCI)
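Step 1: Grow cells in 96-well plates. Step 2: Expose to compound for 48 hours at 5 concentrations. Step 3: Interpolate endpoints linearly; if unreached, use highest concentration. GI50 is the concentration that inhibits growth by half. TGI denotes the concentration required for complete inhibition of growth.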

Legend:
Test in all cases: DTP human tumour cell line panel, 48 h
NCI-H23 lung = test system: NCI-H23 lung
PC-3 prostate = test system: PC-3 prostate
SF-539 CNS = test system: SF-539 CNS
SK-MEL-5 melanoma = test system: SK-MEL-5 melanoma
UO-31 renal = test system: UO-31 renal
A549 NSCLC = test system: A549 NSCLC
UACC-62 melanoma = test system: UACC-62 melanoma
SN12C renal = test system: SN12C renal

SMILES	GI50 (NCI-H23 lung)	TGI (NCI-H23 lung)	GI50 (PC-3 prostate)	TGI (PC-3 prostate)	GI50 (SF-539 CNS)	TGI (SF-539 CNS)	GI50 (SK-MEL-5 melanoma)	TGI (SK-MEL-5 melanoma)	GI50 (UO-31 renal)	TGI (UO-31 renal)	GI50 (A549 NSCLC)	TGI (A549 NSCLC)	GI50 (UACC-62 melanoma)	TGI (UACC-62 melanoma)	GI50 (SN12C renal)	TGI (SN12C renal)
COCc1c(-c2cc3cc(C)cc(OC)c3s2)c2c(N)ncnn2c1CN1CCNC(=O)C1	4.45 µM	70.7 µM	8.54 µM	> 100 µM	2.31 µM	14.4 µM	6.16 µM	18.6 µM	1.76 µM	11.9 µM	3.2 µM	29.9 µM	4.08 µM	23.5 µM	4.02 µM	67.1 µM
O=C(Nc1cccc(O)c1)c1ccc(NC2=C(Cl)C(=O)N(Cc3ccc(Cl)cc3Cl)C2=O)cc1	19.6 µM	36.1 µM	1.75 µM	4.28 µM	6.32 µM	11.8 µM	4.71 µM	9.73 µM	1.91 µM	3.75 µM	15.7 µM	31.7 µM	5.31 µM	9.96 µM	1.99 µM	4.09 µM
CC1=C2[C@@H](CC1)[C@]1(C)O[C@@](C(C)C)(C[C@H]1OC(=O)CO)[C@H]2OC(=O)C1CC1c1ccccc1 (stereo not given in full)	14.2 µM	32.4 µM	7.36 µM	21.6 µM	17.1 µM	33.8 µM	15.2 µM	28.8 µM	9.49 µM	25.1 µM	11.9 µM	25.9 µM	10.9 µM	25.6 µM	9.36 µM	27.6 µM
CN(C)c1ccc2oc(=O)c3ccccc3c2c1		64.2 µM		> 100 µM		> 100 µM		> 100 µM				> 100 µM		> 100 µM		> 100 µM
O=C([CH-]C(=O)c1ccccc1)c1ccccc1.[CH-]1CCCCC1.[CH-]1CCCCC1.[CH-]1CCCCC1.[Sn+4]	6.06 µM	20.3 µM			10.4 µM	27 µM	6.58 µM	19.1 µM	12.5 µM	25 µM	15.5 µM	38.6 µM	4.34 µM	15.6 µM	4.35 µM	16.1 µM
CCOC(=O)c1cc2c(cc1Cl)SC(=Nc1ccccc1)N(S(=O)(=O)c1ccc(Cl)cc1)S2(=O)=O	13.5 µM	29.8 µM	12.2 µM	28.6 µM	18.3 µM	34.8 µM	9.5 µM	21.6 µM	15.9 µM	33.3 µM	26.1 µM	68 µM	10.2 µM	23.7 µM	15.4 µM	33.2 µM
CCOCCCn1c2c(c3c(O)cccc31)C(=O)c1ccccc1-2	19.1 µM	53.2 µM	14.7 µM	36.7 µM	24.7 µM	63.3 µM	15.8 µM	29.8 µM	15.9 µM	38.4 µM	29.2 µM	> 100 µM	14.5 µM	30.1 µM	11.5 µM	25.5 µM
O=S(=O)(O)c1cc(O)c(N=Nc2ccc(O)cc2O)c2ccccc12				> 100 µM				> 100 µM				> 100 µM				> 100 µM
